Results reported in ChEMBL document CHEMBL1157539, “Thousands of chemical starting points for antimalarial lead identification” (Nature, 2010).

Tested on: Plasmodium falciparum
Assay: GSK_TCMDC: Inhibition of Plasmodium falciparum 3D7 in whole erythrocytes, using parasite LDH activity as an index of growth.
Format: functional, organism-based
Conditions: Plasmodium falciparum, 3D7

Nc1c2c(nc3ccc(NC(=O)CCCCCc4ccccc4)cc13)CCCC2
XC50: 438 nM

c1ccc2oc(-c3cc4ccncc4cc3OC3CCNCC3)cc2c1
XC50: 1470 nM

Cc1ccc(NC(=O)NC2CCN(CCCCCNC(=O)/C=C/c3ccc(Cl)c(Cl)c3)CC2)cc1C
XC50: 733 nM

O=C(Cc1cccc(Cl)c1)N1CCc2cc3nccc(N4CCN5CCC[C@H]5C4)c3cc21
XC50: 854 nM

Cc1cc(C)c(O)c(-c2cc(C(=O)Nc3ccc(S(=O)(=O)N4CC(C)OC(C)C4)cc3)[nH]n2)c1 (configuration not stated)
XC50: 664 nM

COC(=O)c1ccc(CC(C)NCC(O)c2ccc(Cl)c(Cl)c2)cc1 (configuration not stated)
XC50: 1000 nM

CCCc1cc(Cc2cnc(N)nc2N)c2cccnc2c1OC
XC50: 675 nM

O=C(Nc1cccc(-c2ccc(-c3nc4cc(C(F)(F)F)ccc4[nH]3)cc2)c1)c1cccnc1
XC50: 572 nM

Cc1nc(-c2cccc(Nc3ccnc4cc(-c5nccs5)ccc34)c2)no1
XC50: 322 nM

Cc1cccc2nc(-c3ccc(-c4ccc(CNCc5ccccc5)cc4)cc3)[nH]c12
XC50: 508 nM

CCc1cn2c3c(cc(C(=O)N[C@@H](Cc4ccccc4)[C@H](O)CNCC(C)C)cc13)N(C)S(=O)(=O)CC2
XC50: 37.6 nM

COc1cc(CCON2C(N)=NC(N)=NC2(C)C)cc(OC)c1OC
XC50: 49.3 nM

Cc1ccc(C(CC(=O)Nc2nccs2)c2ccc(OC(C)C)cc2)cc1 (configuration not stated)
XC50: 479 nM

Fc1ccc2[nH]c(-c3ccc(-c4ccc(CNCC5CCCO5)cc4)s3)nc2c1 (configuration not stated)
XC50: 599 nM

Cc1cccc2nc(-c3cccc(-c4ccc(CN5CCC(C(N)=O)CC5)cc4)c3)[nH]c12
XC50: 853 nM

Cc1ccc(Nc2nc(-c3ccccn3)cs2)nc1
XC50: 752 nM

COc1ccc2nccc([C@@H](O)CN3CCC(NCc4cc5c(cc4F)SCC(=O)N5)CC3)c2n1
XC50: 1000 nM

CC(Cc1ccc(NC(=O)[C@H](C)NCCc2cccc(Cl)c2)cc1)NCCc1cccc(Cl)c1 (some centres not stated)
XC50: 663 nM

COc1ccc2nccc([C@@H](O)CN3CCC(NCc4nc5c([N+](=O)[O-])cccc5[nH]4)CC3)c2c1
XC50: 705 nM

CN=c1nc(NN=Cc2ccccc2Cl)[nH]c(=Nc2cccc(C(F)(F)F)c2)[nH]1
XC50: 915 nM

CC(C)COc1ccc(Cl)cc1Nc1nc(-c2nc3ccccc3[nH]2)cs1
XC50: 877 nM

Clc1ccc(Nc2nc(Nc3ccc(Cl)c(Cl)c3)nc(Sc3nc4ccccc4[nH]3)n2)cc1Cl
XC50: 490 nM

CCOc1cc(NC(=O)Nc2ccnc3ccccc23)cc(OC)c1
XC50: 866 nM

CC(Cc1ccc(NC(=O)c2ccc(CC(C)NCc3ccc(Cl)c(Cl)c3)cc2)cc1)NCCc1cccc(Cl)c1 (configuration not stated)
XC50: 1000 nM

N=C(N)Nc1nc(-c2ccc(NC(=N)N3CCC[C@H]3CN3CCCC3)cc2)cs1
XC50: 1110 nM

CC(C)c1ccc2c(c1)c(SC(C)(C)C)c(CC(C)(C)C#N)n2Cc1ccc(Cl)cc1
XC50: 225 nM

NC1CCN(CCNCc2cccc(-c3ccc(-c4nc5cc(C(F)(F)F)ccc5[nH]4)cc3)c2)C1 (configuration not stated)
XC50: 893 nM

CNCCNCc1ccc(-c2ccc(-c3nc4ccccc4[nH]3)s2)cc1
XC50: 865 nM

CCC(=O)Oc1ccc(NC(=O)c2cccc(OC)c2)cc1
XC50: 771 nM

COc1ccc(Nc2ncc3c(-c4cccc(NC(=O)Cc5cccc(O)c5)c4)c[nH]c3n2)cc1OC
XC50: 698 nM

CN(C)CCN(C)Cc1ccc(-c2cccc(-c3nc4ccccc4[nH]3)c2)cc1
XC50: 751 nM

COc1ccc(CNC2Cc3ccccc3C2)cc1-c1ccc(S(=O)(=O)NCCN2CCCC2)s1
XC50: 195 nM

Cc1cc(N2CCOCC2)nc(Nc2ccc(NC(=O)c3cccc4ccccc34)cc2)n1
XC50: 1300 nM

COC(=O)c1cc(OC2CCOC2=O)cc2c1OC(C)(C)O2 (configuration not stated)
XC50: 806 nM

N#Cc1cncc(-c2nc3c(N4CCN(c5cnccn5)CC4)cccc3n2CCNCc2ccccc2)c1
XC50: 912 nM

CC(C)(C)OC(=O)NCc1ccc(Nc2nnc(-c3ccc(OCC(=O)NC[C@@H]4CC[C@H]5C[C@@H]4C5(C)C)c([N+](=O)[O-])c3)o2)cc1
XC50: 911 nM

Cc1cc(N/N=C/c2ccccc2[N+](=O)[O-])c2ccc(F)cc2n1
XC50: 350 nM

CC(=O)Nc1cccc(C(=O)Nc2ccc(-c3cccc(-c4nc5cccc(C)c5[nH]4)c3)cc2)c1
XC50: 789 nM

COc1ccc(-c2cccc(NC(=O)c3cccc(Cl)c3)c2)cc1CN(C)CCN(C)C
XC50: 813 nM

N=C(N)Nc1ccc(CCc2ccc(NC(=N)N)cc2)cc1
XC50: 289 nM

COc1cc2cc(C(=O)Nc3ccccc3)c(N)nc2cc1OC
XC50: 1130 nM

CCn1c(CN2CCN(Cc3ccccc3)CC2)nc2cc(NC(=O)c3cccs3)ccc21
XC50: 402 nM

CC1C(c2cccc(Cl)c2)OCC(C)(C)N1C(=O)CCN1CCCCC1 (configuration not stated)
XC50: 923 nM

NCc1ccc(CNCc2ccc(-c3ccc(-c4nc5cc(F)ccc5[nH]4)cc3)cc2)cc1
XC50: 402 nM

CC(CN1CCN(C)CC1)C(=O)Nc1ccc(-c2cccc(-c3nc4cc(F)ccc4[nH]3)c2)cc1 (configuration not stated)
XC50: 522 nM

CCN(CC)CCCOc1ccc(Nc2nccc(-c3c(-c4cccc(NC(=O)c5c(F)cccc5F)c4)nn4ccccc34)n2)cc1F
XC50: 407 nM

O=C(Cc1c(-c2ccccc2)[nH]c2ccccc12)NC1CCC(CN2CCC(c3c[nH]c4ccccc34)CC2)CC1 (configuration not stated)
XC50: 476 nM

C=C[C@]1(C)C[C@@H](OC(=O)c2n[nH]c3ccccc3c2=O)[C@]2(C)[C@H](C)CC[C@]3(CCC(=O)[C@H]32)[C@@H](C)[C@@H]1O
XC50: 670 nM

CN(C)Cc1ccc2cc(NC(=O)c3ccc(-c4ccc(Cl)cc4)cc3)ccc2n1
XC50: 849 nM

Cc1cc(NCCC(=O)Nc2ccccc2)nc(NCCOc2ccccc2)n1
XC50: 1140 nM

O=C(NC1CC1)c1ccc(N2CCN(Cc3ccc(Cl)cc3)CC2)nc1
XC50: 1340 nM

Cc1cc(CNCCCCCCCNCc2ccc(-c3ccccc3)cc2)ccc1O
XC50: 493 nM

CN1CCN(c2ccc(Cl)cc2NC(=O)C2COc3ccccc3O2)CC1 (configuration not stated)
XC50: 810 nM

CNC(=O)COC(=O)c1c2c(nc3ccccc13)C(=Cc1ccc3c(c1)OCO3)CCC2
XC50: 643 nM

O=C(c1ccc(Cl)cc1)N1CCOC(CCN2CCC(c3ccccc3)CC2)(c2ccc(Cl)c(Cl)c2)C1 (configuration not stated)
XC50: 238 nM

O=C(NCCc1ccc(Cl)c(Cl)c1)C1CCCN(C(=O)c2ccc(O)c(-c3ccc(Cl)c(Cl)c3)c2)C1 (configuration not stated)
XC50: 780 nM

O=C(NCCN1CCOCC1)c1ccc(CNC(=O)c2ccc(O)c(-c3ccc(Cl)c(Cl)c3)c2)cc1
XC50: 929 nM

Cc1nc2ccc(F)cc2n1C1CCN(C(=O)Cc2ccc(F)c(F)c2)CC1
XC50: 1410 nM

OC(CNc1ccnc(Nc2ccc(Cl)cc2)n1)c1ccccc1C(F)(F)F (configuration not stated)
XC50: 788 nM

O=C(Cc1c[nH]cn1)Nc1cccc(-c2ccc(-c3nc4ccccc4[nH]3)cc2)c1
XC50: 761 nM

COc1ccc2nccc([C@@H](O)CN3CCC(NC(=O)C(c4ccsc4)N4CCN(c5ccccc5)CC4)CC3)c2c1 (some centres not stated)
XC50: 442 nM

CCOc1ccc(-c2nonc2NC(=O)c2ccccc2F)cc1OCC
XC50: 841 nM

O=C(Cc1ccccc1)NC1(c2ccccc2)CCN(CCc2c[nH]c3ccc(F)cc23)CC1
XC50: 878 nM

c1ccc2cc3c(Nc4ccc(N5CCCCCC5)cc4)ccnc3cc2c1
XC50: 936 nM

O=C1c2ccccc2C(=O)N1CCOc1c(Br)cc(Br)cc1CNCCCNc1cc(=O)c2ccccc2[nH]1
XC50: 837 nM

COc1ccc(CC(=O)NC(CCCN2CCC(c3ccccc3)CC2)c2ccc(Cl)c(Cl)c2)cc1OC (configuration not stated)
XC50: 1050 nM

CN(C)CCNCc1cccc(-c2ccc3c(Nc4ccc(Oc5ccccn5)cc4)ccnc3c2)c1
XC50: 233 nM

Cc1c(C)c2c(c(C)c1O)CCC(C)(CCC(=O)O)O2 (configuration not stated)
XC50: 691 nM

CCN(CCS(C)(=O)=O)Cc1ccc(-c2ccc3ncnc(Nc4ccc(OCc5cccc(F)c5)c(Cl)c4)c3c2)o1
XC50: 608 nM

CC(C)[C@H](NC(=O)c1ccc(O)c(-c2ccc(Cl)c(Cl)c2)c1)C(=O)NCCN1CCCCC1
XC50: 339 nM

Fc1ccc2[nH]c(-c3cccc(-c4cccc(CNCCN5CCNCC5)c4)c3)nc2c1
XC50: 842 nM

COc1ccc2c(O)c(C3CCC(c4ccc(Cl)cc4)CC3)c(C)nc2c1 (configuration not stated)
XC50: 647 nM

O=C(Nc1ccc2c(c1)CCN(C1CCC1)CC2)c1cn(-c2ccccc2)nc1-c1ccccc1
XC50: 808 nM

Cc1cc(=O)c(-c2ccc(Oc3ccc(OC(F)(F)F)cc3)cc2)c(C)[nH]1
XC50: 363 nM

CCOc1ccc2c(c1)OC(c1ccccc1)(C(F)(F)F)NC2=O (configuration not stated)
XC50: 167 nM

Cc1ccc(C2(CN3CCC(NC(=O)c4cc[nH]n4)CC3)CCCCC2)cc1
XC50: 225 nM

COc1cc2c(cc1OC)C(C)(C)CN1Cc3c(c(CO)c(OC)c(OC)c3OC)CC21 (configuration not stated)
XC50: 782 nM

O=C(NCC1CCN(Cc2cccc(C(F)(F)F)c2)C1)c1cc(-c2cccc(C(F)(F)F)c2)cs1 (configuration not stated)
XC50: 608 nM

CC=CCON1C(=N)NC(=N)NC1(C)C
XC50: 27.9 nM

COc1cccc2c(N/N=C/c3ccccc3[N+](=O)[O-])ccnc12
XC50: 588 nM

CC(=NNc1nc2ccccc2s1)c1ccccn1
XC50: 1120 nM

Cn1cccc1CCNCc1ccc(-c2cccc(-c3nc4cc(F)ccc4[nH]3)c2)cc1
XC50: 1220 nM

O=C(NC1CCCCN(Cc2ccccc2O)C1)c1cc(F)cc(F)c1 (configuration not stated)
XC50: 1170 nM

COc1ccc(CN2CCC(N3CCc4cc(NC(=O)c5cc(C)on5)ccc43)C2)cc1Cl (configuration not stated)
XC50: 939 nM

Cc1ccc(NC(=O)c2ccc(Cl)cc2)cc1-c1ccc(C(=O)Nc2ccncc2)cc1
XC50: 779 nM

CCC(CC)n1cc2c(ccc3nc(N)nc(N)c32)n1
XC50: 81.4 nM

O=C(Nc1cccc(-c2cc3ccccc3[nH]2)c1)C1CCN(Cc2ccccc2O)CC1
XC50: 938 nM

CCCCCCNC(=N)c1ccc2[nH]c(-c3ccc(O)cc3)nc2c1
XC50: 190 nM

COc1ccccc1C1CCN(CCCCNC(=O)c2ccc(NC(=O)c3ccc(Cl)cc3)cc2)CC1
XC50: 244 nM

CC(C)CC(NC(=O)c1cc2ccccc2s1)C(=O)N1CCCCCC1c1ccc(C(C)(C)C)cc1 (configuration not stated)
XC50: 857 nM

COc1ccc(N2C(=O)C3C(C2=O)C2(C)c4ccccc4C3(C)c3ccccc32)c([N+](=O)[O-])c1 (configuration not stated)
XC50: 720 nM

c1cc(Nc2nccc(-c3cnn4ncccc34)n2)cc(-c2cnco2)c1
XC50: 692 nM

COc1ccc(NC(=O)[C@H](Cc2ccccc2)Nc2cc(C)nc(NCCc3ccccc3)n2)cc1
XC50: 1240 nM

COc1ccc(CC(=O)Nc2ccc(Nc3nc(C)cc(N(C)C)n3)cc2)cc1
XC50: 790 nM

O=S(=O)(Nc1cc2c(cc1O)CCN(C1CCC1)CC2)c1ccc(Oc2ccc(F)cc2)cc1
XC50: 775 nM

Oc1ccc2nc(NCCCc3ccccc3)nc(NCCc3ccccc3)c2c1
XC50: 289 nM

O=C(NCc1cccc2ccccc12)C(c1cc2ccccc2o1)N1CCN(C(c2ccccc2)c2ccccc2)CC1 (configuration not stated)
XC50: 667 nM
